# From patent US20250049759A1, “PHARMACEUTICAL PREPARATION FOR ASSISTING IN PROMOTING SLEEP AND PREPARATION METHOD THEREOF” (Changde Jizhi Biological Technology Co., Ltd, priority 2023, published 2025)
# System: Kunming mice
# Test: Effects on sleep in mice: pentobarbital sodium of suprathreshold dose, sleep latency and duration
# Type: in vivo
# Conditions: gavage once a day for two consecutive weeks (diazepam 0.75 mg/kg; melatonin 75 mg/kg; embodiment/comparative raw material 3.5 g/kg), 50 mg/kg pentobarbital sodium i.p. 60 minutes after last administration, n=10
# Source text: • Test group 1: diazepam group. • Test group 2: melatonin group. • Test group 3: diazepam+embodiment 1 group. • Test group 4: diazepam+embodiment 4 group. • Test group 5: diazepam+embodiment 5 group. • Test group 6: diazepam+comparative example 1 group. • Test group 7: diazepam+comparative example 2 group.
# Note: embodiments and comparative examples were concentrated and dried to obtain test raw materials.
# Test animals: Kunming mice, 18-22 g. (specific pathogen free (SPF) grade, provided by the Pharmacology Department of Traditional Chinese Medicine, Beijing University of Chinese Medicine).
# Test method: The mice were randomly divided into a control group and a test group. The test group 1: diazepam of 0.75 mg/kg was administrated by gavage once a day for two consecutive weeks. The test group 2: melatonin of 75 mg/kg was administrated by gavage once a day for two consecutive weeks. The test group 3 to test group 7: after administrating diazepam of 0.75 mg/kg by gavage, 3.5 g/kg of the raw material of the embodiment or comparative example is administrated once a day for two consecutive weeks. After 60 minutes of the last intragastric administration, the mice in each group were injected with 50 mg/kg pentobarbital sodium intraperitoneally, and the sleep latency and sleep duration of the mice in each group were recorded with the disappearance of righting reflex more than […] as the sleep standard.
Structure (SMILES),Sleep duration [min],Sleep latency [min]
"COc1ccc2[nH]cc(CCNC(C)=O)c2c1 [Test group 2, melatonin]",64.38 ± 3.70,4.38 ± 0.35
"CN1C(=O)CN=C(c2ccccc2)c2cc(Cl)ccc21 [Test group 1, diazepam]",126.37 ± 6.17,2.47 ± 0.27
